Where a name gives a salt, the structure may show the parent alone.
The compounds below were run against T1, Phospho-EGFR in H1975 cell line (Homo sapiens, UniProt P00533, L858R/T790M) (assay: HTRF Phospo EGFR Assay (Cellular)). Conditions: H1975 cells; 6 hours compound incubation in starving medium; HTRF anti-Phospho-EGFR readout.
T1 construct: H1975 cell line was obtained from American Type Culture Collection; host or cells: H1975
T1 sequence (P00533 25-1210 T790M/L858R): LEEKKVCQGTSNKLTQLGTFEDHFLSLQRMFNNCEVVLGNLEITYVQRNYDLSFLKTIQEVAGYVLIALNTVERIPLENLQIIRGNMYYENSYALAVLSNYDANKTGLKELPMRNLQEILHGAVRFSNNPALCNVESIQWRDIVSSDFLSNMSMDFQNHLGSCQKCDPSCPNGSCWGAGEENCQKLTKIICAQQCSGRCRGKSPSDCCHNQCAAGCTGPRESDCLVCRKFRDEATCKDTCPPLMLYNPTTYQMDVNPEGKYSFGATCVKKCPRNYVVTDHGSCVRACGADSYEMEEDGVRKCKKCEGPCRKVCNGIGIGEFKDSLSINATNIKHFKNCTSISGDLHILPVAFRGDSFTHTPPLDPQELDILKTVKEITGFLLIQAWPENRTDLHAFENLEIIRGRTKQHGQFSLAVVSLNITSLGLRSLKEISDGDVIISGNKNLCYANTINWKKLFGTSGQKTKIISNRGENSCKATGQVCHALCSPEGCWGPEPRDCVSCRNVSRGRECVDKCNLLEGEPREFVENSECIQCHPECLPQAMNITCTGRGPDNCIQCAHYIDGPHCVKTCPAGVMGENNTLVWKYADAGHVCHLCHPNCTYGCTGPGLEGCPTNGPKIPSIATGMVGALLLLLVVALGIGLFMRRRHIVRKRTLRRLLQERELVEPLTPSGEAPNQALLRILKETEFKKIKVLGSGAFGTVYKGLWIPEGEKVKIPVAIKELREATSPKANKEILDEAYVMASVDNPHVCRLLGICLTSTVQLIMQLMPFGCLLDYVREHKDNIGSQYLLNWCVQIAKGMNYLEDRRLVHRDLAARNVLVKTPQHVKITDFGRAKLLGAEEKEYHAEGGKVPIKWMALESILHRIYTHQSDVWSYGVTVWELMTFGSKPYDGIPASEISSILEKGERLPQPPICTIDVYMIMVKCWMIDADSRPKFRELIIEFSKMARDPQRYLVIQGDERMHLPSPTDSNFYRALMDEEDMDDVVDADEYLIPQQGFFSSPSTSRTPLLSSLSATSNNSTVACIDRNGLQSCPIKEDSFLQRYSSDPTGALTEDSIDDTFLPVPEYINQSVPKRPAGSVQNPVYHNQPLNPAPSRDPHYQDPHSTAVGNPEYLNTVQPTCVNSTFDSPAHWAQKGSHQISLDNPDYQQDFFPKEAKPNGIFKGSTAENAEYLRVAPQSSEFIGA
Type: cell-based
Description: HTRF Phospo EGFR Assay (Cellular)
H1975 cell line was obtained from American Type Culture Collection (Manassas, Va., USA). Cells were maintained at 37° C., 5% CO2 in complete Media RPMI 1640 without phenol red containing 0.3 mg/ml glutamine, 100 IU/ml penicillin, and […] (Gibco) supplemented with 10% fetal bovine serum (FBS) (Gibco). Compounds were diluted into starving medium RPMI 1640 Media without phenol red containing 0.3 mg/ml glutamine, 100 IU/ml penicillin, and […] (Gibco).
Cells were cultured overnight in a 384-well white plate (8000 cells/well) using 8 μl of complete medium/well. Cells were washed two times with 20 μl of starving medium. Media was removed by tapping plates on tissue and subsequently 8 μl of fresh starving medium/well was added. Then 4 μl/well of the 3×compound solution, containing a half-log dilution series of the compound or DMSO in starving medium, were added to the cells. After 6 hours at 37° C., 5% CO2 cells were lysed by adding to the compound mix 4 μl/well of the supplemented lysis buffer, followed by incubation for 30 min at room temperature with shaking. Lysates were stored at −20° C. overnight. The following day plates were thawed and 2 μl of anti-Phospho-EGFR Cryptate and 2 μl of anti-Phospho-EGFR-d2 antibody solutions prepared in the detection buffer were added. The plates were then incubated for at least 4 h at room temperature before reading the fluorescence emission at 620 and 665 nm using PHERAstar FX plate reader (BMG Labtech).
Nc1ccc(C#Cc2ccc3c(c2)C(=O)N(C(C(=O)Nc2nccs2)c2cc(F)ccc2O)C3)cn1 (racemic) [Example 15, (2RS)-2-[6-[2-(6-Amino-3-pyridyl)ethynyl]-1-oxo-isoindolin-2-yl]-2-(5-fluoro-2-hydroxy-phenyl)-N-thiazol-2-yl-acetamide] showed an IC50 of 1 nM.
Work on Nc1ccc(C#Cc2ccc3c(c2)C(=O)N(C(C(=O)Nc2nccs2)c2ccccc2O)C3)cn1 (racemic) [Example 24, (2RS)-2-[6-[2-(6-Amino-3-pyridyl)ethynyl]-1-oxo-isoindolin-2-yl]-2-(2-hydroxyphenyl)-N-thiazol-2-yl-acetamide] yielded an IC50 of 4 nM.
O=C(Nc1nccs1)C(c1ccccc1)N1Cc2ccc(C#Cc3ccc(C(=O)N4CCOCC4)nc3)cc2C1=O (racemic) [Example 14, (2RS)-2-[6-[2-[6-(Morpholine-4-carbonyl)-3-pyridyl]ethynyl]-1-oxo-isoindolin-2-yl]-2-phenyl-N-thiazol-2-yl-acetamide] was tested, and the IC50 was 51 nM.
O=C(Nc1nccs1)C(c1ccccc1)N1Cc2ccc(C#Cc3ccccc3)cc2C1=O (racemic) [Example 1, (2RS)-2-[1-Oxo-6-(2-phenylethynyl)isoindolin-2-yl]-2-phenyl-N-thiazol-2-yl-acetamide] was tested, and the IC50 was 45 nM.
In the case of CC(=O)N1CCN(Cc2ccc(C#Cc3ccc4c(c3)C(=O)N(C(C(=O)Nc3nccs3)c3ccccc3)C4)cc2)CC1 (racemic) [Example 12, (2RS)-2-[6-[2-[4-[(4-acetylpiperazin-1-yl)methyl]phenyl]ethynyl]-1-oxo-isoindolin-2-yl]-2-phenyl-N-thiazol-2-1-acetamide], the IC50 is reported as 14 nM.
In the case of Nc1ccc(C#Cc2ccc3c(c2)C(=O)N(C(C(=O)Nc2nccs2)c2ccccc2)C3)cn1 (racemic) [Example 3, (2RS)-2-[6-[2-(6-Amino-3-pyridyl)ethynyl]-1-oxo-isoindolin-2-yl]-2-phenyl-N-thiazol-2-yl-acetamide], the IC50 is reported as 32 nM.
In the case of O=C(Nc1nccs1)C(c1ccccc1)N1Cc2ccc(C#Cc3cccnc3)cc2C1=O (racemic) [Example 2, (2RS)-2-[1-oxo-6-[2-(3-pyridyl)ethynyl]isoindolin-2-yl]-2-phenyl-N-thiazol-2-yl-acetamide], the IC50 is reported as 42 nM.
O=C(Nc1nccs1)C(c1cc(F)ccc1O)N1Cc2ccc(C#Cc3cccnc3)c(F)c2C1=O (racemic) [Example 26, (2RS)-2-(5-Fluoro-2-hydroxy-phenyl)-2-[7-fluoro-1-oxo-6-[2-(3-pyridyl)ethynyl]isoindolin-2-yl]-N-thiazol-2-yl-acetamide] showed an IC50 of 2 nM.
Work on CCN1CCN(Cc2ccc(C#Cc3ccc4c(c3)C(=O)N(C(C(=O)Nc3nccs3)c3cc(F)ccc3O)C4)cc2)CC1 (racemic) [Example 31, (2RS)-2-[6-[2-[4-1(4-Ethylpiperazin-1-yl)methyl]phenyl]ethynyl1-1-oxo-isoindolin-2-yl]-2-(5-fluoro-2-hydroxy-phenyl)-N-thiazol-2-yl-acetamide] yielded an IC50 of 7 nM.
Compound Cc1c(C#Cc2ccc(N)nc2)ccc2c1C(=O)N(C(C(=O)Nc1ccccn1)c1cc(F)ccc1O)C2 (racemic) [Example 22, (2RS)-2-[6-[2-(6-Amino-3-pyridyl)ethynyl]-7-methyl1-oxo-isoindolin-2-yl]-2-(5-fluoro-2-hydroxy-phenyl)-N-(2-pyridyl)acetamide] has an IC50 of 3 nM.
For O=C(Nc1nccs1)C(c1cc(F)ccc1O)N1Cc2ccc(C#Cc3ccc(CN4CCOCC4)cc3)cc2C1=O (racemic) [Example 27, (2RS)-2-(5-Fluoro-2-hydroxy-phenyl)-2-[6-[2-[4-(morpholinomethyl)phenyl]ethynyl]-1-oxo-isoindolin-2-yl]-N-thiazol-2-yl-acetamide], the IC50 was 5 nM.
Nc1ccc(C#Cc2ccc3c(c2)C(=O)N(C(C(=O)Nc2nccs2)c2cc(Cl)ccc2O)C3)cn1 (racemic) [Example 23, (2RS)-2-[6-[2-(6-Amino-3-pyridyl)ethynyl]-1-oxo-isoindolin-2-yl]-2-(5-chloro-2-hydroxy-phenyl)-N-thiazol-2-yl-acetamide] showed an IC50 of 4 nM.
Compound Nc1ncc(C#Cc2ccc3c(c2)C(=O)N(C(C(=O)Nc2nccs2)c2cc(F)ccc2O)C3)cn1 (racemic) [Example 18, (2RS)-2-[6-[2-(2-Aminopyrimidin-5-yl)ethynyl]-1-oxo-isoindolin-2-yl]-2-(5-fluoro-2-hydroxy-phenyl)-N-thiazol-2-yl-acetamide] has an IC50 of 2 nM.
For O=C(Nc1nccs1)C(c1ccccc1)N1Cc2ccc(C#Cc3ccc(CN4CCOCC4)cc3)cc2C1=O (racemic) [Example 11, (2RS)-2-[6-[2-[4-(Morpholinomethyl)phenyl]ethynyl]-1-oxo-isoindolin-2-yl]-2-phenyl-N-thiazol-2-yl-acetamide], the IC50 was 61 nM.
For O=C(Nc1nccs1)C(c1cc(F)ccc1O)N1Cc2ccc(C#Cc3ccc(CN4CCC(O)CC4)cc3)cc2C1=O (racemic) [Example 28, (2RS)-2-(5-Fluoro-2-hydroxy-phenyl)-2-[6-[2-[4-1(4-hydroxy-1-piperidyl)methyl]phenyllethynyl]-1-oxo-isoindolin-2-yl]-N-thiazol-2-yl-acetamide], the IC50 was 7 nM.
For CN1CCN(Cc2ccc(C#Cc3ccc4c(c3)C(=O)N(C(C(=O)Nc3nccs3)c3cc(F)ccc3O)C4)cc2)CC1 (racemic) [Example 30, (2RS)-2-(5-Fluoro-2-hydroxy-phenyl)-2-[6-[2-[4-1(4-methylpiperazin-1-yl)methyl]phenyl]ethynyl]-1-oxo-isoindolin-2-yll-N-thiazol-2-yl-acetamide], the IC50 was 7 nM.
Cc1c(C#Cc2ccc(N)nc2)ccc2c1C(=O)N(C(C(=O)Nc1nccs1)c1cc(F)ccc1O)C2 (racemic) [Example 21, (2RS)-2-[6-[2-(6-Amino-3-pyridyl)ethynyl]-7-methyl-1-oxo-isoindolin-2-yl]-2-(5-fluoro-2-hydroxy-phenyl)-N-thiazol-2-yl-acetamide] was tested, and the IC50 was 3 nM.
In the case of CCN1CCN(Cc2ccc(C#Cc3ccc4c(c3)C(=O)N(C(C(=O)Nc3nccs3)c3ccccc3)C4)cc2)CC1 (racemic) [Example 13, (2RS)-2-[6-[2-[4-[(4-Ethylpiperazin-1-yl)methyl]phenyl]ethynyl]-1-oxo-isoindolin-2-yl]-2-phenyl-N-thiazol-2-yl-acetamide], the IC50 is reported as 69 nM.
Nc1ccc(C#Cc2ccc3c(c2)C(=O)N(C(C(=O)Nc2nccs2)c2cccc(F)c2)C3)cn1 (racemic) [Example 4, (2RS)-2-[6-[2-(6-Amino-3-pyridyl)ethynyl]-1-oxo-isoindolin-2-yl]-2-(3-fluorophenyl)-N-thiazol-2-yl-acetamide] was tested, and the IC50 was 9 nM.
O=C(Nc1nccs1)C(c1cc(F)ccc1O)N1Cc2ccc(C#Cc3ccc(CN4CCNCC4)cc3)cc2C1=O (racemic) [Example 29, (2RS)-2-(5-Fluoro-2-hydroxy-phenyl)-2-[1-oxo-6-[2-[4-(piperazin-1-ylmethyl)phenyl]ethynyl]isoindolin-2-yl]-N-thiazol-2-yl-acetamide] gave an IC50 of 8 nM.
Work on O=C(Nc1nccs1)C(c1ccccc1)N1Cc2ccc(C#Cc3ccc(CN4CCNCC4)cc3)cc2C1=O (racemic) [Example 10, (2RS)-2-[1-Oxo-6-[2-[4-(piperazin-1-ylmethyl)phenyl]ethynyl]isoindolin-2-yl]-2-phenyl-N-thiazol-2-yl-acetamide hydrochloride] yielded an IC50 of 43 nM.
Work on Nc1ccc(C#Cc2ccc3c(c2)C(=O)N(C(C(=O)Nc2nccs2)c2ncccc2O)C3)cn1 (racemic) [Example 25, (2RS)-2-[6-[2-(6-Amino-3-pyridyl)ethynyl]-1-oxo-isoindolin-2-yl]-2-(3-hydroxy-2-pyridyl)-N-thiazol-2-yl-acetamide trifluoroacetate] yielded an IC50 of 2 nM.
With Nc1ccc(C#Cc2ccc3c(c2)C(=O)N(C(C(=O)Nc2nccs2)c2n[nH]c4c2CCC4)C3)cn1 (racemic) [Example 8, (2RS)-2-[6-[2-(6-Amino-3-pyridyl)ethynyl]-1-oxo-isoindolin-2-yl]-2-(1,4,5,6-tetrahydrocyclopenta[c]pyrazol-3-yl)-N-thiazol-2-yl-acetamide] the IC50 was 1.9 nM.
For NCc1ccc(C#Cc2ccc3c(c2)C(=O)N(C(C(=O)Nc2nccs2)c2ccccc2)C3)cc1 (racemic) [Example 6, (2RS)-2-[6-[2-[4-(Aminomethyl)phenyl]ethynyl]-1-oxo-isoindolin-2-yl]-2-phenyl-N-thiazol-2-yl-acetamide], the IC50 was 35 nM.
Compound CNC(=O)c1ccc(C#Cc2ccc3c(c2)C(=O)N(C(C(=O)Nc2nccs2)c2ccccc2)C3)cn1 (racemic) [Example 9, N-Methyl-5-[2-[3-oxo-2-[(1RS)-2-oxo-1-phenyl-2-(thiazol-2-ylamino)ethyl]isoindolin-5-yl]ethynyl]pyridine-2-carboxamide] has an IC50 of 16 nM.
Nc1ccc(C#Cc2ccc3c(c2)C(=O)N(C(C(=O)Nc2nccs2)c2cc(F)ccc2F)C3)cn1 (racemic) [Example 5, (2RS)-2-[6-[2-(6-Amino-3-pyridyl)ethynyl]-1-oxo-isoindolin-2-yl]-2-(2,5-difluorophenyl)-N-thiazol-2-yl-acetamide] gave an IC50 of 7 nM.
O=C(Nc1nccs1)C(c1cc(F)ccc1O)N1Cc2ccc(C#Cc3ccnc(Cl)c3)cc2C1=O (racemic) [Example 19, (2RS)-2-[6-[2-(2-Chloro-4-pyridyl)ethynyl]-1-oxo-isoindolin-2-yl]-2-(5-fluoro-2-hydroxy-phenyl)-N-thiazol-2-yl-acetamide] was tested, and the IC50 was 3 nM.
